Measurements from US9624229B2, “Pyrimidine-2-amine compounds and their use as inhibitors of JAK kinases” (Rigel Pharmaceuticals, Inc., priority 2008, dated 2017).
Where two headings read alike, the source gives them in different places.

Biological target: Ba/F3 V617F cells (Homo sapiens, UniProt O60674, V617F, cells depend on it)
Test: Proliferation assay (Cell Titer-Glo, 72 h) utilizing Ba/F3 V617F cells
Type: cell-based, mouse
Method: Ba/F3 V617F cells are maintained and plated in RPMI with 10% FBS. Plating density for these cells is 1×10^5 cells/mL.
The cells were resuspended in a corresponding medium at a required cell density (see above). 100μ of cell suspension was added to each well of a flat bottom 96 well white plate. The compound was serially diluted in DMSO from 5 mM in 3-fold dilutions, and then diluted 1:250 in the RPMI 1640 medium containing 5% FBS and pen/strep. 100 μL of resulting 2× compound solution was added per well in duplicate and the cells were allowed to proliferate for 72 hours at 37° C.
Proliferation was measured using Cell Titer-Glo. The substrate was thawed and allowed to come to ambient temperature. After removal of top 100 μL of medium from each well, 100 μL of the premixed Cell Titer-Glo reagent was added to each well. The plates were mixed on an orbital shaker for three minutes to induce lysis and incubated at ambient temperature for an additional five minutes to allow the signal to equilibrate. The Luminescence was read on the Wallac Plate Reader.
The results of the ability of the compounds of the invention to inhibit JAK2 activity, when tested in the above assay utilizing Ba/F3 V617F cells, are shown in the following Tables 2-3 wherein the level of activity (i.e., the IC50) for each compound is indicated in Tables 2-3. The compound numbers in Tables 2-3 refers to the compounds disclosed herein as being prepared by the methods disclosed herein: […]

[1] = Ba/F3 V617F cells, proliferation, level of activity to inhibit JAK2, read-out: IC50 (the source's name)
[2] = Ba/F3 V617F cells, proliferation, level of activity given as class symbol, read-out: IC50 (the source's name)
[3] = inhibition of JAK2 activity, proliferation of Ba/F3 V617F cells, read-out: IC50 (the source's name)

Chain of Ba/F3 V617F cells (O60674 whole entry V617F): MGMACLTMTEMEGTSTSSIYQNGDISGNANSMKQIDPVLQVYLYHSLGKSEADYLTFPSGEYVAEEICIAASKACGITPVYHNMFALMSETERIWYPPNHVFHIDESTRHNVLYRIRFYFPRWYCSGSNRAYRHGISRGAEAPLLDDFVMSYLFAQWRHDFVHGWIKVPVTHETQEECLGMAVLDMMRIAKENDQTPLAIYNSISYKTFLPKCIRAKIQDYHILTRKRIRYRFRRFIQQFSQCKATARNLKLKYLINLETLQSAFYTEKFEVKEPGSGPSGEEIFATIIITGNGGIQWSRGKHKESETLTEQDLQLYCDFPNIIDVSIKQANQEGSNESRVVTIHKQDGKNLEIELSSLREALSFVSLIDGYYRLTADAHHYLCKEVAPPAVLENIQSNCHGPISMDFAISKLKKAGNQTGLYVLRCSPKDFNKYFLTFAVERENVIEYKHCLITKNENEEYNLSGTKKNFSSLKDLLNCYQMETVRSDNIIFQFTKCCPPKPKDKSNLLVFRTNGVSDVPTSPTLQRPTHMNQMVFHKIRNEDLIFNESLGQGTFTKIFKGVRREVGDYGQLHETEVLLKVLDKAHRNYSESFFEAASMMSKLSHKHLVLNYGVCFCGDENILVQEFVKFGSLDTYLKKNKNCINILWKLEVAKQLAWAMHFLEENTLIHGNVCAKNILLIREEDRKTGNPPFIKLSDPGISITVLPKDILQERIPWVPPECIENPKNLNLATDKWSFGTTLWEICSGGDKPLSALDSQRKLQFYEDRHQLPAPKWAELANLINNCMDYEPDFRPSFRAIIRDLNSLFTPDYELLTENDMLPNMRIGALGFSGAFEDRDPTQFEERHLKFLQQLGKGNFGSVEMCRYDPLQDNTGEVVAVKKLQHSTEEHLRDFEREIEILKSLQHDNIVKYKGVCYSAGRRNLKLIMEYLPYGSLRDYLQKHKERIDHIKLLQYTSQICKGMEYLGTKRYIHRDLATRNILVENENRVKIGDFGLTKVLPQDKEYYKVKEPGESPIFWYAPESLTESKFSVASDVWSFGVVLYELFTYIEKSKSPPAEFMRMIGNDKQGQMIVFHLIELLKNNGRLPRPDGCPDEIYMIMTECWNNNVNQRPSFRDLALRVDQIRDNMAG

GI50 [1] [µM]	Structure (SMILES)	other results
1 to 10	CNC(=O)Cc1ccc(-c2ccnc(Nc3ccc(N4C[C@@H]5C[C@H]4CN5C)c(C)c3)n2)cc1 [compound 48, 4-(4-((methyl)aminocarbonylmethyl)-phenyl)-N-(3-methyl-4-((1S,4S)-5-methyl-2,5-diazabicyclo[2.2.1]heptan-2-yl)phenyl)pyrimidin-2-amine]	–
< 1	CCOc1ccc(-c2ccnc(Nc3ccc(N4C[C@@H]5C[C@H]4CN5C)c(C)c3)n2)cn1 [compound 173, 4-(6-ethoxypyridin-3-yl)-N-(3-methyl-4-((1S,4S)-5-methyl-2,5-diazabicyclo[2.2.1]heptan-2-yl)phenyl)pyrimidin-2-amine]	–
< 1	Cc1cc(Nc2nccc(-c3ccc(NS(C)(=O)=O)nc3)n2)ccc1N1CC2CCC(C1)N2C [compound 167, 4-(6-(methylsulfonylamino)pyridin-3-yl)-N-(3-methyl-4-(8-methyl-3,8-diazabicyclo[3.2.1]octan-3-yl)phenyl)pyrimidin-2-amine]	–
< 1	CN1C2CCC1CN(c1ccc(Nc3nccc(-c4ccc(N5CCOCC5)nc4)n3)cc1)C2 [compound 155, 4-(6-(morpholin-4-yl)pyridin-3-yl)-N-(4-(8-methyl-3,8-diazabicyclo[3.2.1]octan-3-yl)phenyl)pyrimidin-2-amine]	–
< 1	Cc1cc(Nc2nccc(-c3cnc4c(c3)OC(C)(C)C(=O)N4)n2)ccc1N1C[C@H]2C[C@@H]1CN2C [compound 71, 4-(2,2-dimethyl-3-oxo-3,4-dihydro-2H-pyrido[3,2-b][1,4]oxazin-7-yl)-N-(3-methyl-4-((1R,4R)-5-methyl-2,5-diazabicyclo[2.2.1]heptan-2-yl)phenyl)pyrimidin-2-amine]	–
< 1	Cc1cc(Nc2nccc(-c3ccc(NC(=O)CN(C)C)nc3)n2)ccc1N1C[C@@H]2C[C@H]1CN2C [compound 152, 4-(6-(2-(dimethylamino)acetamido)-pyridin-3-yl)-N-(3-methyl-4-((1S,4S)-5-methyl-2,5-diazabicyclo[2.2.1]heptan-2-yl)phenyl)pyrimidin-2-amine]	–
< 1	Cc1cc(Nc2nccc(-c3ccc(N(C)C)nc3)n2)ccc1N1CC2(C)CN(C)CC(C)(C1)C2 [compound 76, 4-(6-(dimethylamino)pyridin-3-yl)-N-(3-methyl-4-(1,5,7-trimethyl-3,7-diazabicyclo[3.3.1]nonan-3-yl)phenyl)pyrimidin-2-amine]	–
< 1	Cc1cc(Nc2nccc(-c3cnc4c(c3)OC(C)(C)C(=O)N4)n2)ccc1N1C[C@@H]2C[C@H]1CN2S(N)(=O)=O [compound 38, 4-(2,2-dimethyl-3-oxo-3,4-dihydro-2H-pyrido[3,2-b][1,4]oxazin-7-yl)-N-(3-methyl-4-((1S,4S)-5-(aminosulfonyl)-2,5-diazabicyclo[2.2.1]heptan-2-yl)phenyl)pyrimidin-2-amine]	–
< 1	Cc1cc(Nc2nccc(-c3ccc4cc[nH]c4c3)n2)ccc1N1C[C@@H]2C[C@H]1CN2C [compound 21, 4-(1H-indol-6-yl)-N-(3-methyl-4-((1S,4S)-5-methyl-2,5-diazabicyclo[2.2.1]heptan-2-yl)phenyl)pyrimidin-2-amine]	–

Second part, the molecule before the results:

Structure (SMILES)	GI50 [1] [µM]	other results
CCOCCCNc1ccc(-c2ccnc(Nc3ccc(N4C[C@@H]5C[C@H]4CO5)c(C)c3)n2)cn1 [compound 200, 4-(6-(3-ethoxypropyl)aminopyridin-3-yl)-N-(3-methyl-4-((1S,4S)-5-oxa-2-azabicyclo[2.2.1]heptan-2-yl)phenyl)pyrimidin-2-amine]	–	GI50 [2]: < 1 µM
Cc1cc(Nc2nccc(-c3ccc4c(c3)CC(=O)N4)n2)ccc1N1CCN2CCC1C2 (centres unmarked) [compound 121, 4-(2-oxoindolin-5-yl)-N-(3-methyl-4-(1,4-diazabicyclo[3.2.1]octan-4-yl)phenyl)pyrimidin-2-amine]	< 1	–
Cc1cc(Nc2ncc(C)c(-c3ccc(N4CCOCC4)nc3)n2)ccc1N1C[C@@H]2C[C@H]1CN2C [compound 67, 5-methyl-4-(6-(morpholin-4-yl)pyridin-3-yl)-N-(3-methyl-4-((1S,4S)-5-methyl-2,5-diazabicyclo[2.2.1]heptan-2-yl)phenyl)pyrimidin-2-amine]	< 1	–
Cc1cc(Nc2nccc(-c3ccc(OC4CCOCC4)nc3)n2)ccc1N1C2CCC1CC(N(C)C)C2 (centres unmarked) [compound 283, 4-(6-(tetrahydropyran-4-yloxy)pyridin-3-yl)-N-(3-methyl-4-(3-(dimethylamino)-8-azabicyclo[3.2.1]octan-8-yl)phenyl)pyrimidin-2-amine]	–	GI50 [2]: < 1 µM
Cc1cc(Nc2nccc(-c3ccc(N4CCOCC4)nc3)n2)ccc1N1CCN2C(C1)[C@H]1CC[C@@H]2C1 (stereo partly drawn) [compound 245, 4-(6-(morpholin-4-yl)pyridin-3-yl)-N-(3-methyl-4-((6R,9S)-6,9-methanooctahydro-1H-pyrido[1,2-a]pyrazin-2-yl)phenyl)pyrimidin-2-amine]	–	GI50 [2]: < 1 µM
Cc1cc(Nc2ncc(C)c(-c3ccc(N(C)C)nc3)n2)ccc1N1C[C@@H]2C[C@H]1CN2C [compound 2, 4-(6-(N,N-dimethylamino)pyridin-3-yl)-5-methyl-N-(3-methyl-4-((1S,4S)-5-methyl-2,5-diazabicyclo[2.2.1]heptan-2-yl)phenyl)pyrimidin-2-amine]	< 1	–
CC(=O)N1CCN(c2ccc(-c3ccnc(Nc4ccc(N5C[C@@H]6C[C@H]5CN6C)nc4)n3)cn2)CC1 [compound 57, 4-(6-(4-acetylpiperazin-1-yl)pyridin-3-yl)-N-(6-((1S,4S)-5-methyl-2,5-diazabicyclo[2.2.1]heptan-2-yl)pyridin-3-yl)pyrimidin-2-amine]	–	GI50 [3]: 1 to 10 µM
Cc1cc(Nc2nccc(-c3cnc4c(c3)OCCN4C)n2)ccc1N1C[C@@H]2C[C@H]1CO2 [compound 195, 4-(4-methyl-3,4-dihydro-2H-pyrido[3,2-b][1,4]oxazin-7-yl)-N-(3-methyl-4-((1S,4S)-5-oxa-2-azabicyclo[2.2.1]heptan-2-yl)phenyl)pyrimidin-2-amine]	–	GI50 [2]: < 1 µM
CN1C[C@@H]2C[C@H]1CN2c1ccc(Nc2nccc(-c3cnc4c(c3)OCCN4)n2)cc1F [compound 87, 4-(3,4-dihydro-2H-pyrido[3,2-b][1,4]oxazin-7-yl)-N-(3-fluoro-4-((1S,4S)-5-methyl-2,5-diazabicyclo[2.2.1]heptan-2-yl)phenyl)pyrimidin-2-amine]	< 1	–
CN(C)c1ccc(-c2ccnc(Nc3ccc(N4C[C@@H]5C[C@H]4CN5C)nc3)n2)cn1 [compound 54, 4-(6-(dimethylamino)pyridin-3-yl)-N-(6-((1S,4S)-5-methyl-2,5-diazabicyclo[2.2.1]heptan-2-yl)pyridin-3-yl)pyrimidin-2-amine]	–	GI50 [3]: 1 to 10 µM
CS(=O)(=O)N1CC2CC1CC2c1ccc(Nc2nccc(-c3ccc(N4CCOCC4)nc3)n2)cc1 (centres unmarked) [compound 227, 4-(6-(morpholin-4-yl)pyridin-3-yl)-N-(4-(2-methylsulfonyl-2-azabicyclo[2.2.1]heptan-5-yl)phenyl)pyrimidin-2-amine]	–	GI50 [2]: < 1 µM
CN1C[C@@H]2C[C@H]1CN2c1ccc(Nc2nccc(-c3cnc4c(c3)OCCN4)n2)cc1C(F)(F)F [compound 98, 4-(3,4-dihydro-2H-pyrido[3,2-b][1,4]oxazin-7-yl)-N-(3-trifluoromethyl-4-((1S,4S)-5-methyl-2,5-diazabicyclo[2.2.1]heptan-2-yl)phenyl)pyrimidin-2-amine]	< 1	–
CN1C(=O)C(C)(C)Oc2cc(-c3ccnc(Nc4ccc(N5C[C@@H]6C[C@H]5CN6C)c(F)c4)n3)cnc21 [compound 126, 4-(2,2,4-trimethyl-3-oxo-3,4-dihydro-2H-pyrido[3,2-b][1,4]oxazin-7-yl)-N-(3-fluoro-4-((1S,4S)-5-methyl-2,5-diazabicyclo[2.2.1]heptan-2-yl)phenyl)pyrimidin-2-amine]	< 1	–
Cc1cc(Nc2nccc(-c3cnc4c(c3)OC(C)(C)C(=O)N4)n2)ccc1N1CCN2CCC1C2 (centres unmarked) [compound 252, 4-(2,2-dimethyl-3-oxo-3,4-dihydro-2H-pyrido[3,2-b][1,4]oxazin-7-yl)-N-(3-methyl-4-(1,4-diazabicyclo[3.2.1]octan-4-yl)phenyl)pyrimidin-2-amine]	–	GI50 [2]: < 1 µM
CN1C[C@@H]2C[C@H]1CN2c1ccc(Nc2nccc(-c3cc[nH]c3)n2)cc1C(F)(F)F [compound 171, 4-(1H-pyrrol-3-yl)-N-(3-trifluoromethyl-4-((1S,4S)-5-methyl-2,5-diazabicyclo[2.2.1]heptan-2-yl)phenyl)pyrimidin-2-amine]	< 1	–
Cc1cc(-c2ccnc(Nc3ccc(N4CC5(C)CN(C)CC(C)(C4)C5)c(F)c3)n2)cnc1N1CCOCC1 [compound 82, 4-(5-methyl-6-(morpholin-4-yl)pyridin-3-yl)-N-(3-fluoro-4-(1,5,7-trimethyl-3,7-diazabicyclo[3.3.1]nonan-3-yl)phenyl)pyrimidin-2-amine]	< 1	–
Cc1cc(Nc2nccc(-c3ccc(NC(=O)C(C)(C)C)cc3)n2)cnc1N1C[C@@H]2C[C@H]1CN2C [compound 131, 4-(4-(t-butylcarbonylamino)phenyl)-N-(5-methyl-6-((1S,4S)-5-methyl-2,5-diazabicyclo[2.2.1]heptan-2-yl)pyridin-3-yl)pyrimidin-2-amine]	–	GI50 [3]: < 1 µM
